In patent US12496350B2 (Ohio State Innovation Foundation, priority 2018, dated 2025):
Where a SMILES comes first, the peptide text is derived from it. Where no end group is shown, it is not given here. [ ]: non-standard residue; d: D form. The star is where a group is joined. X2 = O=C(O)c1cc(C(=O)*)ccc1-c1c2ccc(=O)cc-2oc2cc(O)ccc12; X1 = O=C(O)c1cc(NC(=S)*)ccc1C1c2ccc(O)cc2Oc2cc(O)ccc21; X3 = O=C(O)c1cc(C(=O)*)ccc1C1c2ccc(O)cc2Oc2cc(O)ccc21; 1Nal = N[C@@H](Cc1cccc2ccccc12)C(=O)O; 2Nal = N[C@@H](Cc1ccc2ccccc2c1)C(=O)O; Bta = N[C@@H](Cc1csc2ccccc12)C(=O)O; Pen = CC(C)(S)[C@H](N)C(=O)O; Tle = CC(C)(C)[C@H](N)C(=O)O; AEEA = NCCOCCOCC(=O)O

Molecular target: T1, CAL PDZ domain (CALP5-His) (Homo sapiens, UniProt Q9HD26)
T1 construct: His
Assay: Direct fluorescence polarization binding of labeled peptide, Condition C
Conditions: not given
Procedure: Condition C (denoted with superscript ^C): 50 nM labeled peptide was incubated with 2 mM TCEP in PBS at pH 7.4 containing 0.01% Triton-X100. CALP5-His was serially diluted in PBS containing 0.01% Triton-X100 to which was then added the peptide and TCEP solution. This solution was mixed for 1 h at RT then 20 uL was pipetted into 384-well microplates and fluorescence polarization was measured using a TECAN Infinite M1000 plate reader. KD values were calculated using KaleidaGraph v. 3.6 using the equation: […]
Binding Affinity and Selectivity. The potency and selectivity of inhibitor 29 was first assessed by comparing its binding affinity to the four PDZ domains of CAL, NHERF1, and NHERF2, which are involved in the trafficking of CFTR to and from the plasma membrane. Peptides were labeled with FITC at the N-terminus through a miniPEG linker and tested for binding to various PDZ domains by fluorescence polarization (FP). FITC-labeled peptide (50 nM) was incubated with varying concentrations of PDZ domain in PBS (pH 7.4) containing 0.01% Triton X-100 and 2 mM TCEP for 1 h at room temperature. After 1 h, 20 μL of each sample was pipetted into 384-well black-on-black microplates and fluorescence polarization was measured by using a TECAN Infinite M1000 plate reader. Data was processed using GraphPad PRISM ver. 8.0.

| specificity for CAL PDZ domain relative to other PDZ domains (e.g., NHERF PDZ domains) | Compound |
| --- | --- |
| relatively low specificity | C[C@@H](O)[C@H](NC(=O)[C@@H](NC(=O)[C@@H](NC(=O)[C@H](Cc1csc2ccccc12)NC(=O)[C@H](Cc1ccc2ccccc2c1)NC(=O)[C@H](CCCNC(=N)N)NC(=O)[C@H](CCCNC(=N)N)NC(=O)[C@@H](CCCNC(=N)N)NC(=O)[C@H](CS)NC(=O)COCCOCCNC(=O)c1ccc(-c2c3ccc(=O)cc-3oc3cc(O)ccc23)c(C(=O)O)c1)C(C)(C)S)C(C)(C)C)C(=O)N[C@@H](CCCNC(=N)N)C(=O)N[C@H](C(=O)O)C(C)(C)C [Compound 26, FAM-miniPEG-Cys-(D-Arg)-Arg-Arg-(2-Nal)-(Bta)-Pen-Tle-Thr-Arg-Tle-OH] ({X2-AEEA}-C[dR]RR[2Nal][Bta][Pen][Tle]TR[Tle]-OH) |

Same assay, conditions: Condition C (superscript c): 50 nM labeled peptide, 2 mM TCEP; read-out: KD (printed in the IC50 (nM) column)

| Kd [nM] | Compound |
| --- | --- |
| 168 | C[C@@H](O)[C@H](NC(=O)[C@@H](NC(=O)[C@@H]1CCCN1C(=O)[C@H](Cc1c[nH]c2ccccc12)NC(=O)[C@H](Cc1ccc2ccccc2c1)NC(=O)[C@H](CCCNC(=N)N)NC(=O)[C@H](CCCNC(=N)N)NC(=O)[C@H](CCCNC(=N)N)NC(=O)[C@H](CS)NC(=O)COCCOCCNC(=O)c1ccc(C2c3ccc(O)cc3Oc3cc(O)ccc32)c(C(=O)O)c1)C(C)(C)S)C(=O)N[C@@H](CCCNC(=N)N)C(=O)N[C@H](C(=O)O)C(C)(C)C [Compound 23, FAM-miniPEG-Cys-(D-Arg)-Arg-Arg-(2-Nal)-Trp-Pro-Pen-Thr-Arg-Tle-OH] ({X3-AEEA}-CRRR[2Nal]WP[Pen]TR[Tle]-OH) |
| 49 ± 3 | C[C@@H](O)[C@H](NC(=O)[C@@H](NC(=O)[C@@H](NC(=O)[C@H](Cc1csc2ccccc12)NC(=O)[C@H](Cc1ccc2ccccc2c1)NC(=O)[C@H](CCCNC(=N)N)NC(=O)[C@H](CCCNC(=N)N)NC(=O)[C@@H](CCCNC(=N)N)NC(=O)[C@H](CS)NC(=O)COCCOCCNC(=O)c1ccc(-c2c3ccc(=O)cc-3oc3cc(O)ccc23)c(C(=O)O)c1)C(C)(C)S)C(C)(C)C)C(=O)N[C@@H](CCCNC(=N)N)C(=O)N[C@H](C(=O)O)C(C)(C)C [Compound 26, FAM-miniPEG-Cys-(D-Arg)-Arg-Arg-(2-Nal)-(Bta)-Pen-Tle-Thr-Arg-Tle-OH] ({X2-AEEA}-C[dR]RR[2Nal][Bta][Pen][Tle]TR[Tle]-OH) |

Same assay, conditions: FITC-labeled peptide, FP; read-out: Affinity (KD)

| Kd [nM] | Compound |
| --- | --- |
| 179 | CC(=O)N[C@@H](CS)C(=O)N[C@H](CCCNC(=N)N)C(=O)N[C@@H](CCCNC(=N)N)C(=O)N[C@@H](CCCNC(=N)N)C(=O)N[C@@H](Cc1ccc2ccccc2c1)C(=O)N[C@@H](Cc1c[nH]c2ccccc12)C(=O)N1CCC[C@H]1C(=O)N[C@H](C(=O)N[C@H](C(=O)N[C@@H](CCCNC(=N)N)C(=O)N[C@H](C(=O)O)C(C)(C)C)[C@@H](C)O)C(C)(C)S [Compound 27, Ac-Cys-(D-Arg)-Arg-Arg-Nal-Trp-Pro-Pen-Thr-Arg-Tle-OH] (Ac-C[dR]RR[2Nal]WP[Pen]TR[Tle]-OH) |
| 179 ± 42 | C[C@@H](O)[C@H](NC(=O)[C@@H](NC(=O)[C@@H]1CCCN1C(=O)[C@H](Cc1c[nH]c2ccccc12)NC(=O)[C@H](Cc1ccc2ccccc2c1)NC(=O)[C@H](CCCNC(=N)N)NC(=O)[C@H](CCCNC(=N)N)NC(=O)[C@@H](CCCNC(=N)N)NC(=O)[C@H](CS)NC(=O)COCCOCCNC(=S)Nc1ccc(C2c3ccc(O)cc3Oc3cc(O)ccc32)c(C(=O)O)c1)C(C)(C)S)C(=O)N[C@@H](CCCNC(=N)N)C(=O)N[C@H](C(=O)O)C(C)(C)C [Compound 27-FITC, FITC-miniPEG-Cys-(D-Arg)-Arg-Arg-Nal-Trp-Pro-Pen-Thr-Arg-Tle-OH] ({X1-AEEA}-C[dR]RR[2Nal]WP[Pen]TR[Tle]-OH) |
| 87 | CC(=O)N[C@@H](CS)C(=O)N[C@H](CCCNC(=N)N)C(=O)N[C@@H](CCCNC(=N)N)C(=O)N[C@@H](CCCNC(=N)N)C(=O)N[C@@H](Cc1ccc2ccccc2c1)C(=O)N[C@@H](Cc1csc2ccccc12)C(=O)N1CCC[C@H]1C(=O)N[C@H](C(=O)N[C@H](C(=O)N[C@@H](CCCNC(=N)N)C(=O)N[C@H](C(=O)O)C(C)(C)C)[C@@H](C)O)C(C)(C)S [Compound 28, Ac-Cys-(D-Arg)-Arg-Arg-Nal-Bta-Pro-Pen-Thr-Arg-Tle-OH] (Ac-C[dR]RR[2Nal][Bta]P[Pen]TR[Tle]-OH) |
| 87 ± 14 | C[C@@H](O)[C@H](NC(=O)[C@@H](NC(=O)[C@@H]1CCCN1C(=O)[C@H](Cc1csc2ccccc12)NC(=O)[C@H](Cc1ccc2ccccc2c1)NC(=O)[C@H](CCCNC(=N)N)NC(=O)[C@H](CCCNC(=N)N)NC(=O)[C@@H](CCCNC(=N)N)NC(=O)[C@H](CS)NC(=O)COCCOCCNC(=S)Nc1ccc(C2c3ccc(O)cc3Oc3cc(O)ccc32)c(C(=O)O)c1)C(C)(C)S)C(=O)N[C@@H](CCCNC(=N)N)C(=O)N[C@H](C(=O)O)C(C)(C)C [Compound 28-FITC, FITC-miniPEG-Cys-(D-Arg)-Arg-Arg-Nal-Bta-Pro-Pen-Thr-Arg-Tle-OH] ({X1-AEEA}-C[dR]RR[2Nal][Bta]P[Pen]TR[Tle]-OH) |

Molecular target: CAL PDZ binding domain (Homo sapiens, UniProt Q9HD26)
Assay: not given
Conditions: CAL PDZ binding sequences not conjugated to a cCPP; cited from earlier work

| Compound | Ki [µM] |
| --- | --- |
| WQFTKL [WQFTKL] | 16 ± 1 |
| WQFTRL [WQFTRL] | 7.6 ± 0.7 |
| WQKTKL [WQKTKL] | 17.8 ± 0.8 |
| WQKTRI [WQKTRI] | 12 ± 0.9 |
| WQKTRL [WQKTRL] | 9 ± 0.6 |
| WQKTRV [WQKTRV] | 16 ± 2 |
| WQLTKL [WQLTKL] | 17 ± 1 |
| WQRTRI [WQRTRI] | 16 ± 2 |
| WQRTRL [WQRTRL] | 10.8 ± 0.7 |
| WQRTRV [WQRTRV] | 18 ± 1 |
| WQVTRV [WQVTRV] | 2.3 ± 0.2 |

Molecular target: T1, CAL PDZ domain (CALP5-His)
Assay: FP-based competition assay, Condition B (probe FAM-[…]-OH)
Assay type: binding
Conditions: Condition B (superscript b): 100 nM probe FAM-[…]-OH, 500 nM CALP5-His, 5 mM DTT
Procedure: Serial dilutions of each competitor peptide were prepared in PBS and the incubation solution was added to each. The combined solutions were gently mixed for 1 h at RT after which 20 uL sample was pipetted into 384-well black-on-black microplates and fluorescence polarization was measured using a TECAN Infinite M1000 plate reader. Data was processed to determine IC50 using GraphPad PRISM ver. 6.0.

| IC50 [µM] | Compound |
| --- | --- |
| > 20 | CC(=O)N[C@@H](CS)C(=O)N[C@@H](CCCNC(=N)N)C(=O)N[C@@H](CCCNC(=N)N)C(=O)N[C@@H](CCCNC(=N)N)C(=O)N[C@@H](Cc1ccccc1)C(=O)N[C@@H](Cc1c[nH]c2ccccc12)C(=O)N[C@@H](CCC(N)=O)C(=O)N[C@@H](CS)C(=O)N[C@H](C(=O)N[C@@H](CCCNC(=N)N)C(=O)N[C@@](C)(CC(C)C)C(=O)O)[C@@H](C)O [Compound 4] |

Same assay, conditions: Pen for cysteine at P-3

| improvement of CAL binding [fold] | Compound |
| --- | --- |
| ~2 | CC(=O)N[C@@H](CS)C(=O)N[C@@H](CCCNC(=N)N)C(=O)N[C@@H](CCCNC(=N)N)C(=O)N[C@@H](CCCNC(=N)N)C(=O)N[C@@H](Cc1ccccc1)C(=O)N[C@@H](Cc1c[nH]c2ccccc12)C(=O)N[C@@H](CCC(N)=O)C(=O)N[C@H](C(=O)N[C@H](C(=O)N[C@@H](CCCNC(=N)N)C(=O)N[C@H](C(=O)O)C(C)(C)C)[C@@H](C)O)C(C)(C)S [Compound 16, Ac-Cys-Arg-Arg-Arg-Phe-Trp-Gln-Pen-Thr-Arg-Tle-OH] |

Same assay, conditions: Trp replaced with 1- or 2-naphthylalanine

| effect of substitution at P-5 on binding | Compound |
| --- | --- |
| did not significantly affect the binding | CC(=O)N[C@@H](CS)C(=O)N[C@@H](CCCNC(=N)N)C(=O)N[C@@H](CCCNC(=N)N)C(=O)N[C@@H](CCCNC(=N)N)C(=O)N[C@@H](Cc1ccccc1)C(=O)N[C@@H](Cc1cccc2ccccc12)C(=O)N[C@@H](CCC(N)=O)C(=O)N[C@@H](CS)C(=O)N[C@H](C(=O)N[C@@H](CCCNC(=N)N)C(=O)N[C@H](C(=O)O)C(C)(C)C)[C@@H](C)O [Compound 14, Ac-Cys-Arg-Arg-Arg-Phe-(1-Nal)-Gln-Cys-Thr-Arg-Tle-OH] (Ac-CRRRF[1Nal]QCTR[Tle]-OH) |
| did not significantly affect the binding | CC(=O)N[C@@H](CS)C(=O)N[C@@H](CCCNC(=N)N)C(=O)N[C@@H](CCCNC(=N)N)C(=O)N[C@@H](CCCNC(=N)N)C(=O)N[C@@H](Cc1ccccc1)C(=O)N[C@@H](Cc1ccc2ccccc2c1)C(=O)N[C@@H](CCC(N)=O)C(=O)N[C@@H](CS)C(=O)N[C@H](C(=O)N[C@@H](CCCNC(=N)N)C(=O)N[C@H](C(=O)O)C(C)(C)C)[C@@H](C)O [Compound 15, Ac-Cys-Arg-Arg-Arg-Phe-(2-Nal)-Gln-Cys-Thr-Arg-Tle-OH] (Ac-CRRRF[2Nal]QCTR[Tle]-OH) |
